Test results from US7981873B1, “Use within transplantation surgery” (Corline Systems AB, priority 2000, dated 2011).

Experiments:
Assay type in all cases: cell-based
[1] = test system: human islets in ABO-compatible fresh human blood; experiment: Tubing loop model: human islet perifusion with ABO-compatible fresh human blood; set-up: TAT: unit not given here; settings: after 60 min human islet perifusion, Mean ± SE(M)
Protocol: (§1) All the in vitro experiments for studies of islets contacting whole blood were performed in a tubing loop model. The experimental model is a modification of a model for testing biomaterials that has previously been described (J. Clin. Immunol. 16, 223-230 (1996)). Tubings made of polyvinylchloride (PVC, i.d.=6.3 mm, length=300 mm) were modified with immobilized heparin according to a method developed by Corline Systems AB (Uppsala, Sweden) as disclosed in international patent application no WO93/05793. Briefly, the polymer surface is modified with a high molecular weight amine compound to add primary amine groups to the surface. A soluble conjugate prepared by covalent binding of approximately 60 mol of heparin per mol of a straight-chained polyallylamine is irreversibly bonded onto the amine surface of the tubings. This procedure results in a total surface concentration of heparin of approximately 0.5 μg/cm^2. By using such heparin modified tubings it is possible to incubate the tubings with non-anticoagulated fresh human blood in a rocking device at 37° C. for one hour with only moderate activation of blood (c.f. control column in Table 1 A and 1 B below). Unmodified tubings will invariably induce complete clotting at these experimental conditions. Addition of human islets or porcine adult or fetal islets lead to some remarkable observations. Complete clotting invariably occurred with a total loss of platelets, a sharp increase in the formation of TAT and a very significant increase in the markers of the early contact phase (FXIIa and FXIa) of coagulation (C.f. Table 1 A and 1 B).
(§2) Sixty ml of non-anticoagulated blood was collected from healthy blood donors using heparin-coated equipment. U-shaped tubings with a total volume of nine ml were filled with eight ml of blood immediately followed by addition of isolated human islets or porcine adult or porcine fetal islets (500 IEQ). The tubings were then closed into loops using connectors of titanium furnished with immobilised heparin. The tubing loops were placed vertically in a rocking device and the complete apparatus was placed in an incubator at 37° C. for up to sixty minutes. At the end of the rocking period blood was collected in EDTA and the number of cells were counted in a automatic cell counter. The blood samples were then centrifuged at 4° C. (3290×g, 20 min) and EDTA plasma was collected and immediately put at −70° C. Islets retrieved after blood perifusion were prepared for immunohistochemistry.

[2] = test system: adult porcine islets in fresh human blood; experiment: Tubing loop model: adult porcine islet perifusion with fresh human blood; set-up: FNIIa-AT / TAT: unit not given here; settings: for Platelets: blood supplemented with additive, Mean SE(M); for TAT: thrombin-antithrombin
Protocol: as §1, §2

[3] = test system: platelets in platelet rich plasma (PRP); experiment: Islet-induced platelet aggregation in platelet rich plasma (aggregometer); settings: agent added to PRP before islets
Protocol: Platelets in platelet rich plasma (PRP) and gel filtered platelets were tested in an aggregometer. Islets were added to PRP and thereafter analysed in the aggregometer. It was shown that the islets induced aggregation of the platelets (FIG. 1) and that platelets number in the sample were reduced from 375×10^9 to 236×10^9. If purified platelets without plasma proteins were used in combination with islets no aggregation and reduction in the platelet count were observed. In attempts to identify the mechanism behind the induced aggregation, an RGDS tetrapeptide to inhibit integrin binding and a monoclonal antibody against Fc receptors on platelets were used.

[4] = after 60 min adult porcine islet perifusion

Q: heparin was tested. Which Platelets ([1]; blood supplemented with additive) did it give?
A: 114 ± 17 ×10^9

Q: And the C3a [1]?
A: 565 ± 143.6 ng/mL

Q: And the C5b-9 [1]?
A: 147 ± 39.6 AU/mL

Q: And the FXIIa-AT [1]?
A: 5.4e-06 ± 1.7e-06 M

Q: And the FXIa-AT [1]?
A: 3.4e-07 ± 1.2e-07 M

Q: What about the Lymph. [1] of the same molecule?
A: 1.60 ± 0.20 ×10^9

Q: What about the Mono. [1] of the same molecule?
A: 0.28 ± 0.06 ×10^9

Q: And the Neutra. [1]?
A: 2.56 ± 0.43 ×10^9

Q: And the TAT ([1]; thrombin-antithrombin)?
A: 4467 ± 2285

Q: And the C3a [2, 4]?
A: 486 ± 139 ng/mL

Q: And the C5b-9 [2, 4]?
A: 82 ± 22 AU/mL

Q: And the FXIa-AT [2, 4]?
A: 0.53 ± 0.26 µM

Q: And the Lymphcytes [2, 4]?
A: 1.88 ± 0.11 ×10^9

Q: What about the Monocytes [2, 4] of the same molecule?
A: 0.35 ± 0.05 ×10^9

Q: What about the Neutrophils [2, 4] of the same molecule?
A: 3.00 ± 0.19 ×10^9

Q: And the Platelets [2, 4]?
A: 145 ± 13.0 ×10^9

Q: What about the clotting ([2]; in words, summary of Tables 1A and 1B) of the same molecule?
A: prevented clotting

Q: What about the “platelet count and generation of TAT” value ([2]; in words, summary of Tables 1A and 1B, listed as Soluble heparin) of the same molecule?
A: remarkable improvement

Q: What about the “platelet count and generation of TAT” value ([2]; in words, summary of Tables 1A and 1B, listed as soluble heparin) of the same molecule?
A: remarkable improvement in preservation of the number of platelets and reduced generation of TAT

Q: And the TAT [2, 4]?
A: 505 ± 162

Q: Which results are given for RGDS [RGDS peptide]?
A: consumption of platelets when islets were added to PRP ([3]; FIG. 2): totally abolished; aggregation of platelets when islets were added to PRP ([3]; FIG. 2, FIG. 3): totally abolished

B1: C1-INA: the complement inhibitor C1 inactivator (C1-INA) (protein, UniProt P05155 23-500, looked up)
Plasma protease C1 inhibitor: NPNATSSSSQDPESLQDRGEGKVATTVISKMLFVEPILEVSSLPTTNSTTNSATKITANTTDEPTTQPTTEPTTQPTIQPTQPTTQLPTDSPTQPTTGSFCPGPVTLCSDLESHSTEAVLGDALVDFSLKLYHAFSAMKKVETNMAFSPFSIASLLTQVLLGAGENTKTNLESILSYPKDFTCVHQALKGFTTKGVTSVSQIFHSPDLAIRDTFVNASRTLYSSSPRVLSNNSDANLELINTWVAKNTNNKISRLLDSLPSDTRLVLLNAIYLSAKWKTTFDPKKTRMEPFHFKNSVIKVPMMNSKKYPVAHFIDQTLKAKVGQLQLSHNLSLVILVPQNLKHRLEDMEQALSPSVFKAIMEKLEMSKFQPTLLTLPRIKVTTSQDMLSIMEKLEFFDFSYDLNLCGLTEDPDLQVSAMQHQTVLELTETGVEAAAASAISVARTLLVFEVQQPFLFVLWDQQHKFPVFMGRVYDPRA
Q: Which C3a [2, 4] does the source give for B1 here?
A: 1094 ± 78 ng/mL

Q: What about the C5b-9 [2, 4] of the same molecule?
A: 183 ± 29 AU/mL

Q: What about the FNIIa-AT [2, 4] of the same molecule?
A: 19.65 ± 0.45

Q: And the FXIa-AT [2, 4]?
A: 2.95 ± 0.15

Q: And the Lymphcytes [2, 4]?
A: 1.23 ± 0.38 ×10^9

Q: And the Monocytes [2, 4]?
A: 0.15 ± 0.01 ×10^9

Q: What about the Neutrophils [2, 4] of the same molecule?
A: 0.41 ± 0.13 ×10^9

Q: What about the Platelets [2, 4] of the same molecule?
A: 4 ± 0 ×10^9

Q: What about the complement activation ([2]; in words, summary of Table 1B) of the same molecule?
A: reduced complement activation

Q: What about the “effect on the coagulation parameters” value ([2]; in words, summary of Table 1B) of the same molecule?
A: no detectable effect

Q: And the TAT [2, 4]?
A: 30250 ± 3450
